Assay results taken from patent US9771379B2, “N-(2-(2-amino-6-substituted-4,4a,5,6-tetrahydropyrano[3,4-d][1,3]OXAZIN-8a(8H)-yl)-thiazol-4-yl) amides” (Pfizer Inc., priority 2015, dated 2017).

Legend:
[1] = target: BACE1 enzyme (Homo sapiens (Human), UniProt P56817); assay: BACE1 Cell-Free Assay; format: biochemical; conditions: fluorescence polarization, synthetic APP substrate, pH 4.5
Source text: This assay measures the inhibition of the beta-secretase enzyme as it cleaves a non-native peptide.
A synthetic APP substrate that can be cleaved by beta-secretase having N-terminal biotin and made fluorescent by the covalent attachment of Oregon Green at the Cys residue is used to assay beta-secretase activity in the presence or absence of the inhibitory compounds. […] The BACE1 enzyme is affinity purified material from conditioned media of CHO-K1 cells that have been transfected with a soluble BACE construct (BACE1delta™96His). […] Plates are covered and incubated for 3 hours at 37° C. […] The activity of the beta-secretase enzyme is detected by changes in the fluorescence polarization that occur when the substrate is cleaved by the enzyme.

[2] = target: full length human BACE1 (Homo sapiens (Human), UniProt P56817); assay: BACE1 Scintillation Proximity Binding Assay (SPA); conditions: radioligand displacement, HEK cell membranes, pH 6.0
Sequence of full length human BACE1 (P56817 46-501): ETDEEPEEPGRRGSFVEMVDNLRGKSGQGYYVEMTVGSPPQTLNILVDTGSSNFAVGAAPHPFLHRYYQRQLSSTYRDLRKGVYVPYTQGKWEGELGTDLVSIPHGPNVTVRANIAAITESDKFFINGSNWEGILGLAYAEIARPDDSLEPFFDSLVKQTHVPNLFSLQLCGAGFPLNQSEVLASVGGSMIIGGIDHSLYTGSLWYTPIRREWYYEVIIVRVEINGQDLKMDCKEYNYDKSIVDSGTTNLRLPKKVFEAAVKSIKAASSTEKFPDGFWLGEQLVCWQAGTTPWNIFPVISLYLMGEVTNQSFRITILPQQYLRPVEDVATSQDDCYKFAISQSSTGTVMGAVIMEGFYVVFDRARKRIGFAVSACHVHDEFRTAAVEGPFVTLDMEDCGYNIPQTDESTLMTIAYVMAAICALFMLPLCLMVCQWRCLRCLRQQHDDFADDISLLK
Experimental: BACE1 Scintillation Proximity Binding Assay (SPA): The BACE1 binding assay measured beta-site amyloid precursor protein-cleaving enzyme (BACE) binding as a decrease in the counts of radioligand bound in a scintillation proximity assay (SPA). […] Full length human BACE1 over-expressed in HEK cells was prepared by Pfizer scientists. Frozen stock cell paste was reacted in 50 mM sodium acetate buffer (pH=6.0) containing 3H-(4aR,6R,8aS)-8a-(2,4-difluorophenyl)-6-(1-methyl-1H-pyrazol-4-yl)-4,4a,5,6,8,8a-hexahydropyrano[3,4-d][1,3]thiazin-2-amine ligand, SPA bead and 60 μM to 600 pM of test compound in an assay volume of 27 uL. The compound plate also contained positive (BACE inhibitor) and negative (DMSO) control wells. The binding was carried out at room temperature for 30 minutes and then the plates were read on a TriLux Microbeta reader to determine the number of counts bound. The raw data was converted to percent effect compared to positive and negative control wells and the compound concentrations and % effect values for tested compounds were plotted to determine the 50% effect (1050) with a four-parameter logistic dose response equation.

Sequence of BACE1 enzyme (P56817 46-457): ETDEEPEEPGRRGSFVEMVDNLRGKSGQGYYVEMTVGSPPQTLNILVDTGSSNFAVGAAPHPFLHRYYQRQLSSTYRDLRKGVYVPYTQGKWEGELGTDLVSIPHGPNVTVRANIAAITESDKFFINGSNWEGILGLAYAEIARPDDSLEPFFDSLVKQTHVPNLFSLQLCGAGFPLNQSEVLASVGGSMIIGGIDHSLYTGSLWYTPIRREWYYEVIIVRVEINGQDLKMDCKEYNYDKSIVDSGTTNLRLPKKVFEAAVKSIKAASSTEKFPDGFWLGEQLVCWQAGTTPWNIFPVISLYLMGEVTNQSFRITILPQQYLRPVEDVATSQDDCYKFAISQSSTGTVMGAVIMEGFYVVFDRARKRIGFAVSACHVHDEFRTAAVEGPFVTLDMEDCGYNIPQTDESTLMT

IC50 [1] [nM] | IC50 [2] [nM] | Compound
2260 |  | NC1=N[C@@]2(c3nc(NC(=O)c4cnc(OC(F)F)cn4)cs3)COC3(CCC3)C[C@H]2CO1 [Example 17, N-(2-((4a′R,8a′R)-2′-amino-4a′,5′-dihydro-4′H-spiro [cyclobutane-1,6′-pyrano [3,4-d][1,3]oxazin]-8a′(8′H)-yl)thiazol-4-yl)-5-(difluoromethoxy)pyrazine-2-carboxamide]
561 |  | NC1=N[C@@]2(c3nc(NC(=O)c4ncc(OC(F)F)cc4Cl)cs3)COC3(CCC3)C[C@H]2CO1 [Example 18, N-(2-((4a′R,8a′R)-2′-amino-4a′,5′-dihydro-4′H-spiro [cyclobutane-1,6′-pyrano[3,4-d][1,3]oxazin]-8a′(8′H)-yl)thiazol-4-yl)-3-chloro-5-(difluoromethoxy) picolinamide]
185 |  | Cc1cc(C#N)cnc1C(=O)Nc1csc([C@]23COC4(CCC4)C[C@H]2COC(N)=N3)n1 [Example 19, N-(2-((4a′R,8a′R)-2′-amino-4a′,5′-dihydro-4′H-spiro [cyclobutane-1,6′-pyrano [3,4-d][1,3]oxazin]-8a′(8′H)-yl)thiazol-4-yl)-5-cyano-3-methylpicolinamide]
 | 124 | NC1=N[C@@]2(c3nc(NC(=O)c4cnc(OC(F)F)cn4)cs3)CO[C@@H](C(F)(F)F)C[C@H]2CO1 [Example 20, N-{2-[(4aR,6R,8aR)-2-amino-6-(trifluoromethyl)-4,4a,5,6-tetrahydropyrano [3,4-d][1,3]oxazin-8a(8H)-yl]-1,3-thiazol-4-yl}-5-(difluoromethoxy)pyrazine-2-carboxamide]
 | 5 | Cc1cc(C#N)cnc1C(=O)Nc1csc([C@]23CO[C@@H](C(F)(F)F)C[C@H]2COC(N)=N3)n1 [Example 21, N-{2-[(4aR,6R,8aR)-2-amino-6-(trifluoromethyl)-4,4a,5,6-tetrahydropyrano [3,4-d][1,3]oxazin-8a(8H)-yl]-1,3-thiazol-4-yl}-5-cyano-3-methylpyridine-2-carboxamide]
 | 13 | Cc1nc(OC(F)F)cnc1C(=O)Nc1csc([C@]23CO[C@@H](C(F)(F)F)C[C@H]2COC(N)=N3)n1 [Example 22, N-{2-[(4aR,6R,8aR)-2-amino-6-(trifluoromethyl)-4,4a,5,6-tetrahydropyrano [3,4-d][1,3]oxazin-8a(8H)-yl]-1,3-thiazol-4-yl}-5-(difluoromethoxy)-3-methyl pyrazine-2-carboxamide]
 | 162 | COc1cnc(C(=O)Nc2csc([C@]34CO[C@@H](C(F)(F)F)C[C@H]3COC(N)=N4)n2)c(C)n1 [Example 23, N-{2-[(4aR,6R,8aR)-2-amino-6-(trifluoromethyl)-4,4a,5,6-tetrahydropyrano [3,4-d][1,3]oxazin-8a(8H)-yl]-1,3-thiazol-4-yl}-5-methoxy-3-methylpyrazine-2-carboxamide]
